Experimental findings from ChEMBL document CHEMBL1125526, “Penicillin derived C2-symmetric dimers as novel inhibitors of HIV-1 proteinase” (J Med Chem, 1992) are described below.

pIC50: −log10 of the molar value.

The target in this experiment is Human immunodeficiency virus type 1 protease (Human immunodeficiency virus 1, UniProt Q72874). Kind of experiment: Inhibitory activity towards HIV-1 protease.
Usually pIC50 stands for −log10 of the IC50, conventionally taken in molar units. `CCNC(=O)[C@@H](NC(=O)Cc1ccccc1)[C@@H]1N[C@@H](C(=O)NCCNC(=O)[C@@H]2N[C@@H]([C@H](NC(=O)Cc3ccccc3)C(=O)NCC)SC2(C)C)C(C)(C)S1`: the pIC50 was 8.32.
For `COC(=O)[C@@H](NC(=O)Cc1ccccc1)[C@@H]1N[C@@H](C(=O)NCCNC(=O)[C@@H]2N3C(=O)C(NC(=O)Cc4ccccc4)[C@H]3SC2(C)C)C(C)(C)S1` (stereo partly specified), the pIC50 was 6.30.
The compound `COC(=O)[C@@H](NC(=O)Cc1ccccc1)[C@@H]1N[C@@H](C(=O)NCCNC(=O)[C@@H]2N[C@@H]([C@H](NC(=O)Cc3ccccc3)C(=O)OC)SC2(C)C)C(C)(C)S1` gave a negative-log IC50 (pIC50) of 7.22.
The value for `CC1(C)S[C@H]([C@H](NC(=O)Cc2ccccc2)C(=O)NCc2ccccc2)N[C@H]1C(=O)NCCNC(=O)[C@@H]1N[C@@H]([C@H](NC(=O)Cc2ccccc2)C(=O)NCc2ccccc2)SC1(C)C` was 9.05; that for `CCNC(=O)[C@@H](NC(=O)Cc1ccccc1)[C@@H]1N[C@@H](C(=O)OCCOC(=O)[C@@H]2N[C@@H]([C@H](NC(=O)Cc3ccccc3)C(=O)NCC)SC2(C)C)C(C)(C)S1` was under 4.92.
For `COC(=O)[C@@H](NC(=O)Cc1ccccc1)[C@@H]1N[C@@H](C(=O)NCCCNC(=O)[C@@H]2N[C@@H]([C@H](NC(=O)Cc3ccccc3)C(=O)OC)SC2(C)C)C(C)(C)S1`, the pIC50 was under 4.92.
Under `CC1(C)S[C@H]([C@H](NC(=O)Cc2ccccc2)C(N)=O)N[C@H]1C(=O)NCCNC(=O)[C@@H]1N[C@@H]([C@H](NC(=O)Cc2ccccc2)C(N)=O)SC1(C)C` stands 8.52; under `COC(=O)[C@@H](NC(=O)Cc1ccccc1)[C@@H]1N[C@@H](C(=O)NNC(=O)[C@@H]2N[C@@H]([C@H](NC(=O)Cc3ccccc3)C(=O)OC)SC2(C)C)C(C)(C)S1`, 5.17.
Regarding `COC(=O)[C@@H](NC(=O)Cc1ccccc1)[C@@H]1N[C@@H](C(=O)NCCNC(C)=O)C(C)(C)S1`, the pIC50 was under 4.26.
Turning to `CCNC(=O)[C@@H]1N[C@@H]([C@H](NC(=O)Cc2ccccc2)C(=O)OC)SC1(C)C`, the pIC50 is under 4.20.
The compound `CC1(C)S[C@@H]2[C@H](NC(=O)Cc3ccccc3)C(=O)N2[C@H]1C(=O)NCCNC(=O)[C@@H]1N2C(=O)[C@@H](NC(=O)Cc3ccccc3)[C@H]2SC1(C)C` had a pIC50 of under 4.15.
